Experimental data from PMC7127794 (Bioorganic & Medicinal Chemistry Letters, 2015).

Experiments:
[1] = system: influenza virus A/H1N1/pdm09; assay type: cell-based, influenza virus A/California/07/09/H1N1/pdm09
MDCK cells = conditions: dog

| Compound | CD50 (MDCK cells) [µM] | anti-viral activity (in words) [1] | also measured |
| --- | --- | --- | --- |
| COC(=O)[C@H](Cc1ccccc1)NC(=O)[C@H]1O[C@@H](O[C@H]2[C@H](O[C@H]3CC[C@]4(C)[C@H]5C(=O)C=C6[C@@H]7C[C@@](C)(C(=O)O)CC[C@]7(C)CC[C@@]6(C)[C@]5(C)CC[C@H]4C3(C)C)O[C@H](C(=O)N[C@@H](Cc3ccccc3)C(=O)OC)[C@@H](O)[C@@H]2O)[C@H](O)[C@@H](O)[C@@H]1O [Compound 5] |  |  | more wide SI values than Rimantadine [1]: 12.2 times |
| CC1(C)[C@@H](O[C@H]2O[C@H](C(=O)O)[C@@H](O)[C@H](O)[C@H]2O[C@@H]2O[C@H](C(=O)O)[C@@H](O)[C@H](O)[C@H]2O)CC[C@]2(C)[C@H]3C(=O)C=C4[C@@H]5C[C@@](C)(C(=O)O)CC[C@]5(C)CC[C@@]4(C)[C@]3(C)CC[C@@H]12 [Compound 1, Glycyrrhizic acid] | 364.6 | did not show anti-viral activity |  |
| CC1(C)[C@@H](O[C@@H]2O[C@H](C(=O)O)[C@@H](O)[C@H](O)[C@H]2O[C@@H]2O[C@H](C(=O)O)[C@@H](O)[C@H](O)[C@H]2O)CC[C@]2(C)C3=CC=C4[C@@H]5C[C@@](C)(C(=O)O)CC[C@]5(C)CC[C@@]4(C)[C@]3(C)CC[C@@H]12 [Compound 19] |  | moderate | more toxic to cells than natural glycoside 1 (MDCK cells): 17 times |
| CC1(C)[C@@H](O[C@@H]2O[C@H](C(=O)N[C@@H](CSCc3ccccc3)C(=O)O)[C@@H](O)[C@H](O)[C@H]2O[C@@H]2O[C@H](C(=O)N[C@@H](CSCc3ccccc3)C(=O)O)[C@@H](O)[C@H](O)[C@H]2O)CC[C@]2(C)[C@H]3C(=O)C=C4[C@@H]5C[C@@](C)(C(=O)O)CC[C@]5(C)CC[C@@]4(C)[C@]3(C)CC[C@@H]12 [Compound 11] |  |  | more wide SI values than Rimantadine [1]: 14.2 times |
| COC(=O)C[C@H](NC(=O)[C@H]1O[C@@H](O[C@H]2[C@H](O[C@H]3CC[C@]4(C)[C@H]5C(=O)C=C6[C@@H]7C[C@@](C)(C(=O)O)CC[C@]7(C)CC[C@@]6(C)[C@]5(C)CC[C@H]4C3(C)C)O[C@H](C(=O)N[C@@H](CC(=O)OC)C(=O)OC)[C@@H](O)[C@@H]2O)[C@H](O)[C@@H](O)[C@@H]1O)C(=O)OC [Compound 9] | 37.3 | does not confer virus-inhibiting properties |  |
| 18α-GL [Compound 15] |  | week anti-viral activity | more toxic to cells than natural glycoside 1 (MDCK cells): 7.7 times; EC50 [1]: 15.2 µM; SI [1]: 3 |
| CC1(C)[C@@H](O[C@@H]2O[C@H](C(=O)N[C@@H](CCCCNC(=O)OCc3ccccc3)C(=O)O)[C@@H](O)[C@H](O)[C@H]2O[C@@H]2O[C@H](C(=O)N[C@@H](CCCCNC(=O)OCc3ccccc3)C(=O)O)[C@@H](O)[C@H](O)[C@H]2O)CC[C@]2(C)[C@H]3C(=O)C=C4[C@@H]5C[C@@](C)(C(=O)O)CC[C@]5(C)CC[C@@]4(C)[C@]3(C)CC[C@@H]12 [Compound 13] |  | slightly increased antiviral activity |  |
| COC(=O)C[C@H](NC(=O)[C@H]1O[C@@H](O[C@H]2[C@H](O[C@H]3CC[C@]4(C)[C@H]5C(=O)C=C6[C@H]7C[C@@](C)(C(=O)O)CC[C@]7(C)CC[C@@]6(C)[C@]5(C)CC[C@H]4C3(C)C)O[C@H](C(=O)N[C@@H](CC(=O)OC)C(=O)OC)[C@@H](O)[C@@H]2O)[C@H](O)[C@@H](O)[C@@H]1O)C(=O)OC [Compound 16] | 38.0 |  |  |
